Data published in patent publication US6710048B2, “Pyrazine derivatives as modulators of tyrosine kinases” (Ortho-McNeil Pharmaceutical, Inc., priority 2000, dated 2004).

Key:
[1] = test system: HCT-116 colon carcinoma; test: Cell proliferation assay (14C-thymidine incorporation), HCT-116; format: cell-based; details: Homo sapiens, read-out: Inhibition of cell proliferation IC50
Protocol: (§1) The ability of a test compound to inhibit the proliferation of cell growth was determined by measuring incorporation of ^14C-labelled thymidine into newly synthesized DNA within the cells. This method was used on cell lines derived from carcinomas originating from several tissues such as HeLa cervical adenocarcinoma (American Type Culture Collection (ATCC), Virginia, Cat. #CCL-2), A375 malignant melanoma (ATCC CRL-1619), SK-OV-3 ovarian adenocarcinoma (ATCC HTB-77) HCT-116 colon carcinoma (CCL-247) and PC-3 prostate adenocarcinoma (ATCC CRL-1435). The method was also used on primary cells such as HUVEC endothelial cells (ATCC CRL-1730). In this way the effect of a compound on cell growth of cells with many different phenotypes can be determined. Cells were trypsinized and counted and 3000-8000 cells were added to each well of a 96-well CytoStar tissue culture treated scintillating microplate (Amersham #RPNQ0160) in complete medium in a volume of 100 μl. Cells were incubated for 24 hours in complete medium at 37° C. in an atmosphere containing 5% CO2.
(§2) Next, 1 μl of test compound in 100% DMSO was added to the wells of the plate. DMSO only was added to control wells. Cells were incubated for 24 more hours in complete medium at 37° C. in an atmosphere containing 5% CO2. Methyl ^14C-thymidine 56 mCi/mmol (NEN #NEC568 or Amersham #CFA532) was diluted in complete medium and 0.2 μCi/well was added to each well of the CytoStar plate in a volume of 20 μl. The plate was incubated for 24 hours at 37° C. plus 5% CO2 in drug plus ^14C-thymidine. The contents of the plate were discarded into a ^14C radioactive waste container by inverting the plate and the plate was washed twice with 200 μl PBS. 200 μl of PBS is then added to each well. The top of the plate was sealed with a transparent plate sealer and a white plate backing sealer (Packard #6005199) was applied to the bottom of the plate. The degree of Methyl ^14C-thymidine incorporation was quantified on a Packard Top Count.

[2] = test system: MDA-MB-231; test: Cell proliferation assay (14C-thymidine incorporation), MDA-MB-231; format: cell-based; details: Homo sapiens, read-out: Inhibition of cell proliferation IC50
Protocol: as §1, §2

[3] = test system: PC-3 prostate adenocarcinoma; test: Cell proliferation assay (14C-thymidine incorporation), PC-3; format: cell-based; details: Homo sapiens, read-out: Inhibition of cell proliferation IC50
Protocol: as §1, §2

[4] = test system: rat aortic ring; test: Rat aortic ring assay (vascular sprouting); format: cell-based; details: 192 h; rat aortic ring in fibrin gel, analyzed on day 8; read-out: Inhibition of Vascular Sprouting (IC50μM)
Protocol: The rat aortic ring assay is a rapid in vitro assay that measures new capillary growth in an environment that closely approximates the in vivo conditions of the extracellular matrix. The assay was performed as described (Nicosia, R F and Ottinetti, A. Growth of new microvessels in serum-free matrix culture of rat aorta. Lab Invest., 63: 115-122, 1990). Thoracic aortas were removed from 1 to 2-month old male Sprague-Dawley rats and transferred to a culture dish containing serum-free MCDB 131 medium (Clonetics). Extraneous tissue was removed and the aorta was sectioned into rings approximately 1 mm long and rinsed 8-10 times in serum-free medium. A solution of sterile 1.5% agarose (Type VI-A, Sigma, St. Louis, Mo.) was added to the wells of a 6-well plate. The wells were filled with clotting fibrinogen solution and an aortic ring was transferred into the well positioned with the lumen oriented horizontally in the center of the fibrin gel solution. The fibrinogen solution was prepared in MCDB 131 medium with bovine fibrinogen at 3 mg/ml. Clotting was initiated by adding 20 μl of a 50 NIH units/ml bovine thrombin solution and the fibrin gel generally formed within 30 seconds. The fibrinolytic inhibitor amino-n-caproic acid was added to the culture medium at 300 µg/ml (microgram per milliliter) for the first four days of the assay and at 50 μg/ml from day 5 to day 8. Once the fibrin gel solution solidified, 5 ml of serum-free MCDB 131 media containing 100 μg/ml penicillin, 100 μg/ml streptomycin and 0.25 μg/ml amphotericin B was added to each well. Explants were incubated at 37° C. with 5% CO2 for 8 days. Medium was replaced every 2-3 days and the assay was analyzed on day 8. Inhibition of vascular sprouting was measured by adding test compounds diluted in DMSO.

[5] = test system: A375 human melanoma cells; test: In vivo inhibition of tumor growth (A375 in athymic mice); parameters: species or system mouse; details: A375 cells s.c. in male athymic mice, intraperitoneally once a day for 30 days, 50 mg/Kg and 5 mg/Kg (FIG. 1)
Text: The in vivo effect of a compound on the growth of human tumor cells can be evaluated by implanting human tumor cells into the hindflank of athymic mice and administering test compound to the mice. Such assays are useful in identifying and confirming compounds that are useful for inhibiting angiogenesis or to identify compounds that can inhibit VEGF activity and therefor are useful for treating a variety of cancers or other diseases associated with abnormal or aberrant angiogenesis, such as those diseases discussed supra. Human tumor cells originating from a variety of different cancer types, such as A375 human melanoma cells, were implanted subcutaneously into the hindflank of male athymic mice (Charles River) and allowed to establish a sizeable tumor for 6-10 days as determined by caliper measurements. Test compound was then administered by injecting the compound formulated in an appropriate vehicle, here saline was used as the vehicle, intraperitoneally into the mice once a day for 30 days. The test compound can also be administered by other routes such as orally, sub cutaneously or by intravenous infusion. The size of the tumor in this study was measured every four days and the degree of inhibition was determined by comparing drug-treated animals to animals that were injected with vehicle only. […]

IC50 [1]: > 100 µM
IC50 [2]: 12.7 µM
IC50 [3]: 22.9 µM
IC50 [4]: > 1 µM
Compound: CN(C)CCNc1cncc(-c2cncc(Nc3cccc(Cl)c3)n2)c1 [Cmd 33, N′-[5-[6-[(3-chlorophenyl)amino]pyrazinyl]-3-pyridinyl]-N^2,N^2-dimethyl-1,2-ethanediamine]
tumor growth delay (tumor size) [5]: delay of tumor size progression
tumor growth delay (tumor size) ([5]; listed as compound 33): tumor growth delay
